Reference: PubChem BioAssay AID743418 (The Scripps Research Institute Molecular Screening Center, 2014)
Calls of active or inactive are those of the source. How the calls were made is not given here.

Biological target: Sphingosine 1-phosphate receptor 2 (Homo sapiens) (UniProt O95136)
Assay: agonism at human S1PR2 – cell-based, fluorescence, dose response, counter-screen for S1PR3 antagonist project, late-stage follow-up (AID 743418)
Conditions: S1P2-expressing cells, agonist-mode fluorescence read-out

Chain of Sphingosine 1-phosphate receptor 2 (Homo sapiens) (O95136 whole entry, looked up): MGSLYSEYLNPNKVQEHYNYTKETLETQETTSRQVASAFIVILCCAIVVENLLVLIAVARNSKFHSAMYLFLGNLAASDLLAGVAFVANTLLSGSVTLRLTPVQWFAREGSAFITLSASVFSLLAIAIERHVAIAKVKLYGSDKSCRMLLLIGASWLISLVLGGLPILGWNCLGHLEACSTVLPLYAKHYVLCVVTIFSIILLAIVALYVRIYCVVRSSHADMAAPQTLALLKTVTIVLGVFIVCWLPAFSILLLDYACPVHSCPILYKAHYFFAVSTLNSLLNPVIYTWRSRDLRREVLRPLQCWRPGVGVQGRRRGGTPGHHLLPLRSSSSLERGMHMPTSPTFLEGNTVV

| SMILES | EC50 |
| --- | --- |
| O=C(NC(c1ccc(Cl)cc1)c1nc(-c2ccccc2)no1)c1cccc(Br)c1 (configuration not stated) | > 50 µM (inactive) |
| O=C(NC(c1ccc(Cl)cc1)c1nc(-c2ccccc2)no1)c1ccc(Cl)c(Br)c1 (configuration not stated) | > 50 µM (inactive) |
| O=C(NC(c1ccccc1)c1nc(-c2ccccc2)no1)c1cccc(Br)c1 (configuration not stated) | > 50 µM (inactive) |
| O=C(NC(c1ccccc1)c1nc(-c2ccccc2)no1)c1cccc(Cl)n1 (configuration not stated) | > 50 µM (inactive) |
| O=C(NC(c1ccccc1)c1nc(-c2ccccc2)no1)c1cccc(Cl)c1 (configuration not stated) | > 50 µM (inactive) |
| O=C(c1cccc(Cl)c1)N(CCO)C(c1ccc(Cl)c(Cl)c1)c1nc(-c2ccccc2)no1 (configuration not stated) | > 50 µM (inactive) |
| O=C(NC(c1ccc(Cl)c(Cl)c1)c1nc(-c2ccccc2)no1)c1ccc(Cl)cc1 (configuration not stated) | > 50 µM (inactive) |
| O=C(NC(c1ccc(Cl)cc1)c1nc(-c2ccccc2)no1)c1ccc(Cl)c(Cl)c1 (configuration not stated) | > 50 µM (inactive) |
| O=C(NC(c1ccc(Cl)cc1)c1nc(-c2ccccc2)no1)c1cccc(Cl)c1 (configuration not stated) | > 50 µM (inactive) |
| O=C(NC(c1ccc(Cl)cc1)c1nc(-c2ccccn2)no1)c1cccc(Cl)c1 (configuration not stated) | > 50 µM (inactive) |
| O=C(NC(c1ccc(Cl)c(Cl)c1)c1nc(-c2ccccc2)no1)c1cccc(Cl)c1 (configuration not stated) | > 50 µM (inactive) |
| Cc1ccc(C(NC(=O)c2cccc(Cl)c2)c2nc(-c3ccccc3)no2)cc1 (configuration not stated) | > 50 µM (inactive) |
| O=C(NC(c1ccc(Cl)cc1)c1nc(-c2cccc(Cl)c2)no1)c1cccc(Cl)c1 (configuration not stated) | > 50 µM (inactive) |
| O=C(NC(Cc1ccccc1)c1nc(-c2ccccc2)no1)c1cccc(Cl)c1 (configuration not stated) | > 50 µM (inactive) |
| O=C(NC(c1ccc(Cl)c(Cl)c1)c1nc(-c2ccccc2)no1)c1ccc(Cl)c(Cl)c1 (configuration not stated) | > 50 µM (inactive) |
| O=C(NC(c1cccc(Cl)c1)c1nc(-c2ccccc2)no1)c1cccc(Cl)c1 (configuration not stated) | > 50 µM (inactive) |
| O=C(NC(c1cccc(Cl)c1)c1nc(-c2ccccc2)no1)c1cc(Cl)cc(Cl)c1 (configuration not stated) | > 50 µM (inactive) |
| CCc1ccc(C(NC(=O)c2cccc(Cl)c2)c2nc(-c3ccccc3)no2)cc1 (configuration not stated) | > 50 µM (inactive) |
| O=C(NC(c1ccc(Br)cc1)c1nc(-c2ccccc2)no1)c1ccc(Cl)c(Cl)c1 (configuration not stated) | > 50 µM (inactive) |
| N#Cc1ccc(C(=O)NC(c2ccc(Cl)c(Cl)c2)c2nc(-c3ccccc3)no2)cc1 (configuration not stated) | > 50 µM (inactive) |
| O=C(NC(c1nc(-c2ccccc2)no1)C1CCOCC1)c1ccc(Cl)c(Cl)c1 (configuration not stated) | > 50 µM (inactive) |
| O=C(NC(c1ccccc1)c1nc(-c2ccccc2)no1)c1ccc(Cl)cc1 (configuration not stated) | > 50 µM (inactive) |
| O=C(NC(c1nc(-c2ccccc2)no1)C1CCCCC1)c1ccc(Cl)c(Cl)c1 (configuration not stated) | > 50 µM (inactive) |
| Cc1ccc(C(=O)NC(c2ccccc2)c2nc(-c3ccccc3)no2)cc1 (configuration not stated) | > 50 µM (inactive) |
| O=C(NC(c1ccc(Cl)c(Cl)c1)c1nc(-c2ccccc2)no1)c1ccccc1 (configuration not stated) | > 50 µM (inactive) |
| O=C(NC(c1cccc(Cl)c1)c1nc(-c2ccccc2)no1)c1ccc(Cl)c(Cl)c1 (configuration not stated) | > 50 µM (inactive) |
| COc1ccc(C(=O)NC(c2ccccc2)c2nc(-c3ccccc3)no2)cc1 (configuration not stated) | > 50 µM (inactive) |
